Laboratory results as given in PubChem BioAssay (NCI).
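Following 48 hours of exposure in 96-well plates, responses at five concentrations were used to interpolate endpoints linearly. GI50 = concentration required for 50% inhibition of growth. TGI: total growth inhibition.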

Experiments:
Assay in all cases: NCI tumour cell line growth inhibition, 48 h
[1] = system: A498 renal
[2] = system: SF-268 CNS
[3] = system: HOP-62 NSCLC
[4] = system: SK-MEL-2 melanoma
[5] = system: NCI-H522 lung
[6] = system: 786-0 renal
[7] = system: A549 NSCLC
[8] = system: COLO 205 colon
[9] = system: HCT-15 colon
[10] = system: OVCAR-3 ovarian
[11] = system: NCI-H23 lung
[12] = system: EKVX NSCLC
[13] = system: RPMI-8226 leukemia
[14] = system: U251 CNS
[15] = system: RXF 393 renal
[16] = system: MDA-MB-468 breast
[17] = system: K-562 leukemia
[18] = system: M14 melanoma
[19] = system: NCI-H226 lung
[20] = system: SNB-19 CNS
[21] = system: HT29 colon
[22] = system: SK-MEL-5 melanoma
[23] = system: UACC-257 melanoma
[24] = system: T-47D breast
[25] = system: NCI-H460 lung
[26] = system: MDA-MB-231 breast
[27] = system: SN12C renal
[28] = system: SK-MEL-28 melanoma
[29] = system: MDA-MB-435
[30] = system: IGROV1 ovarian
[31] = system: SR leukemia
[32] = system: SNB-75 CNS
[33] = system: TK-10 renal
[34] = system: SF-295 CNS
[35] = system: MOLT-4 leukemia
[36] = system: CAKI-1 renal
[37] = system: NCI/ADR-RES ovarian
[38] = system: DU-145 prostate
[39] = system: UO-31 renal
[40] = system: HOP-92 NSCLC
[41] = system: KM12 colon
[42] = system: LOX IMVI melanoma
[43] = system: CCRF-CEM leukemia
[44] = system: UACC-62 melanoma
[45] = system: HCT-116 colon
[46] = system: HCC-2998 colon
[47] = system: BT-549 breast
[48] = system: HL-60(TB) leukemia
[49] = system: MCF7 breast
[50] = system: PC-3 prostate
[51] = system: SF-539 CNS
[52] = system: ACHN renal
[53] = system: SW-620 colon
[54] = system: OVCAR-5 ovarian
[55] = system: SK-OV-3 ovarian
[56] = system: OVCAR-8 ovarian
[57] = system: MALME-3M melanoma
[58] = system: HS 578T breast
[59] = system: OVCAR-4 ovarian

For `COc1csc(/C=N/NC(=O)c2[nH]c3ccc(Br)cc3c2-c2ccccc2)c1`, the GI50 [1] was 24000 nM, the TGI [1] was 70100 nM and the GI50 [2] was 48.8 nM. The TGI [2] was greater than 54200 nM, the GI50 [3] was 79.4 nM and the TGI [3] was 10500 nM. For the same molecule, the GI50 [4] was 35.5 nM, the TGI [4] was 389 nM and the GI50 [5] was less than 13.8 nM. It also gave a TGI [5] of 41.3 nM, a GI50 [6] of 85.1 nM and a TGI [6] of 9690 nM. The GI50 [7] was 39.3 nM, the TGI [7] was 22000 nM and the GI50 [8] was 26.5 nM. The TGI [8] was 70.3 nM, the GI50 [9] was 33.2 nM and the TGI [9] was 14800 nM. The GI50 [10] was 32.5 nM, the TGI [10] was 720 nM and the GI50 [11] was 42.7 nM. The TGI [11] was 17000 nM, the GI50 [12] was 86.3 nM and the TGI [12] was greater than 100000 nM. The GI50 [13] was 39.1 nM, the TGI [13] was 8210 nM and the GI50 [14] was 32 nM. It also gave a TGI [14] of 12300 nM, a GI50 [15] of 49.6 nM and a TGI [15] of 906 nM. It also gave a GI50 [16] of 23.2 nM, a TGI [16] of 65.1 nM and a GI50 [17] of 30.5 nM. It also gave a TGI [17] of 13100 nM, a GI50 [18] of 29.2 nM and a TGI [18] of 22500 nM. For the same molecule, the GI50 [19] was 315 nM, the TGI [19] was 2160 nM and the GI50 [20] was 47 nM. It also gave a TGI [20] of 18400 nM, a GI50 [21] of 26.7 nM and a TGI [21] of 69.1 nM. It also gave a GI50 [22] of 26.3 nM, a TGI [22] of 76.9 nM and a GI50 [23] of 635 nM. It also gave a TGI [23] greater than 67200 nM, a GI50 [24] of 3890 nM and a TGI [24] greater than 95800 nM. The GI50 [25] was 34.6 nM, the TGI [25] was 10600 nM and the GI50 [26] was 26.4 nM. It also gave a TGI [26] of 69.3 nM, a GI50 [27] of 38.7 nM and a TGI [27] of 9100 nM. The GI50 [28] was 1730 nM, the TGI [28] was 46500 nM and the GI50 [29] was 27.2 nM. For the same molecule, the TGI [29] was 98.5 nM, the GI50 [30] was 77.8 nM and the TGI [30] was 17800 nM. It also gave a GI50 [31] of 23.5 nM, a TGI [31] of 23300 nM and a GI50 [32] of 100 nM. The TGI [32] was 3780 nM, the GI50 [33] was 13200 nM and the TGI [33] was 43600 nM. For the same molecule, the GI50 [34] was 30.3 nM, the TGI [34] was 6480 nM and the GI50 [35] was 46.3 nM. The TGI [35] was greater than 37400 nM, the GI50 [36] was 111 nM and the TGI [36] was 34600 nM. The GI50 [37] was 23.8 nM, the TGI [37] was 57.4 nM and the GI50 [38] was 36.8 nM. The TGI [38] was 11500 nM, the GI50 [39] was 60.2 nM and the TGI [39] was greater than 100000 nM. The GI50 [40] was 920 nM, the TGI [40] was 51200 nM and the GI50 [41] was 37.3 nM. The TGI [41] was 10900 nM, the GI50 [42] was 30.2 nM and the TGI [42] was 18900 nM. The GI50 [43] was 29.9 nM, the TGI [43] was 1020 nM and the GI50 [44] was 42 nM. It also gave a TGI [44] of 16700 nM, a GI50 [45] of 30.5 nM and a TGI [45] of 1150 nM. For the same molecule, the GI50 [46] was 89.4 nM, the TGI [46] was 17300 nM and the GI50 [47] was 30.5 nM. The TGI [47] was 354 nM, the GI50 [48] was 30.2 nM and the TGI [48] was 180 nM. For the same molecule, the GI50 [49] was 28 nM, the TGI [49] was 12700 nM and the GI50 [50] was 57.5 nM. It also gave a TGI [50] of 48800 nM, a GI50 [51] of 21.7 nM and a TGI [51] of 53.1 nM. For the same molecule, the GI50 [52] was 63.4 nM, the TGI [52] was 34700 nM and the GI50 [53] was 42.4 nM. It also gave a TGI [53] greater than 100000 nM, a GI50 [54] of 47.5 nM and a TGI [54] of 53200 nM. It also gave a GI50 [55] of 51.9 nM, a TGI [55] of 15500 nM and a GI50 [56] of 28.9 nM. For the same molecule, the TGI [56] was 2000 nM, the GI50 [57] was 45.3 nM and the TGI [57] was 20500 nM. The GI50 [58] was 34.6 nM, the TGI [58] was 22700 nM and the GI50 [59] was 5420 nM. The TGI [59] was greater than 100000 nM.
